Measurements: publication PMC12406203 (Journal of Medicinal Chemistry, 2025)

Key:
Assay in all cases: KINOMEscan
Type in all cases: binding
[1] = biological target: T1, VEGFR2 (Homo sapiens, UniProt P35968)
T1 construct: purchased Eurofins DiscoverX, LLC; host or cells: E. coli BL21-derived host (T7 phage) or HEK-293
Method: (§1) The kinase inhibition profile of compounds 94 and 95 was assessed against 103 protein kinases by Eurofins DiscoverX, LLC., using the KINOMEscan assay. Kinase-tagged T7 phage strains were grown in parallel in 24-well blocks in an E. coli host derived from the BL21 strain. E. coli were grown to log-phase and infected with T7 phage from a frozen stock (multiplicity of infection = 0.4) and incubated with shaking at 32 °C until lysis (90–150 min). The lysates were centrifuged (6000g) and filtered (0.2 μm) to remove cell debris. The remaining kinases were produced in HEK-293 cells and subsequently tagged with DNA for qPCR detection. […] The liganded beads were blocked with excess biotin and washed with blocking buffer (SeaBlock (Pierce), 1% BSA, 0.05% Tween 20, 1 mM DTT) to remove unbound ligand and to reduce nonspecific phage binding. […] Test compounds were prepared as 100× stocks in 100% DMSO and directly diluted into the assay. All reactions were performed in polypropylene 384-well plates in a final volume of 0.02 mL. […] The kinase concentration in the eluates was measured by qPCR.
(§2) The compound(s) were screened at the concentration(s) requested, and results for primary screen binding interactions are reported as RA (%), where lower numbers indicate stronger hits in the matrix. RA=(testcompoundsignal−PCsignal/NCsignal−PCsignal)×100

[2] = biological target: T2, ABL1-nonphosphorylated (Homo sapiens, UniProt P00519)
T2 construct: purchased Eurofins DiscoverX, LLC; host or cells: E. coli BL21-derived (T7 phage) or HEK-293
Method: as §1, §2

[3] = biological target: T3, CDK9 (Homo sapiens, UniProt P50750)
T3 construct: purchased Eurofins DiscoverX, LLC; host or cells: E. coli (T7 phage) or HEK-293
Method: as §1, §2

[4] = biological target: T4, p38γ (Homo sapiens, UniProt P53778)
T4 construct: purchased Eurofins DiscoverX, LLC; host or cells: E. coli (BL21-derived, T7 phage) or HEK-293
T4 sequence (P53778 1-367): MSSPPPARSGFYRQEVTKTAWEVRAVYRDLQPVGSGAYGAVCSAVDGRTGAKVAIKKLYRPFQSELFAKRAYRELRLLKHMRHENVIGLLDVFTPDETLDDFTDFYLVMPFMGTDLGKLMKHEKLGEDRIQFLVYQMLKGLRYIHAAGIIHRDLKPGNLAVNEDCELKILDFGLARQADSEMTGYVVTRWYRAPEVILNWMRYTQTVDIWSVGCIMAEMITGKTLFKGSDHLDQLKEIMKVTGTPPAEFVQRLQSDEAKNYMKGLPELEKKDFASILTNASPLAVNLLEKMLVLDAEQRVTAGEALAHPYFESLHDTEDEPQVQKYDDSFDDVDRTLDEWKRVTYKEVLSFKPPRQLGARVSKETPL
Method: as §1, §2

[5] = biological target: T5, PIM3 (Homo sapiens, UniProt Q86V86)
T5 construct: purchased Eurofins DiscoverX, LLC; host or cells: E. coli BL21-derived host (T7 phage) or HEK-293
Method: as §1, §2

[6] = biological target: T6, PAK1 (Homo sapiens, UniProt Q13153)
T6 construct: purchased Eurofins DiscoverX, LLC; host or cells: E. coli (BL21-derived, T7 phage) or HEK-293
Method: as §1, §2

[7] = biological target: T7, p38δ (Homo sapiens, UniProt O15264)
T7 construct: purchased Eurofins DiscoverX, LLC; host or cells: E. coli (BL21-derived, T7 phage) or HEK-293
T7 sequence (O15264 1-365): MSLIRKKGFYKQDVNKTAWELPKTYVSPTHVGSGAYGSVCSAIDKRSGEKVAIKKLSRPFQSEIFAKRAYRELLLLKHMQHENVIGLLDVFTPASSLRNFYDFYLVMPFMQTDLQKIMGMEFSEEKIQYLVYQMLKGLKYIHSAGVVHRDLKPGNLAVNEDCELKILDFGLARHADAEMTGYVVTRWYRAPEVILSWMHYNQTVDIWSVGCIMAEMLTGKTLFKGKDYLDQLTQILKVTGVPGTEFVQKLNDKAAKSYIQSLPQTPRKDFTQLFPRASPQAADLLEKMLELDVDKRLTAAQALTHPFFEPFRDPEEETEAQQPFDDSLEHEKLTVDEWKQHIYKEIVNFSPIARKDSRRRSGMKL
Method: as §1, §2

[8] = biological target: T8, JAK2(JH1domain-catalytic) (Homo sapiens, UniProt O60674)
T8 construct: JAK2(JH1domain-; purchased Eurofins DiscoverX, LLC; host or cells: E. coli (T7 phage) or HEK-293
Method: as §1, §2

[9] = biological target: T9, CSNK1D (Homo sapiens, UniProt P48730)
T9 construct: purchased Eurofins DiscoverX, LLC; host or cells: E. coli (T7 phage) or HEK-293
Method: as §1, §2

T1 sequence (P35968 20-1356): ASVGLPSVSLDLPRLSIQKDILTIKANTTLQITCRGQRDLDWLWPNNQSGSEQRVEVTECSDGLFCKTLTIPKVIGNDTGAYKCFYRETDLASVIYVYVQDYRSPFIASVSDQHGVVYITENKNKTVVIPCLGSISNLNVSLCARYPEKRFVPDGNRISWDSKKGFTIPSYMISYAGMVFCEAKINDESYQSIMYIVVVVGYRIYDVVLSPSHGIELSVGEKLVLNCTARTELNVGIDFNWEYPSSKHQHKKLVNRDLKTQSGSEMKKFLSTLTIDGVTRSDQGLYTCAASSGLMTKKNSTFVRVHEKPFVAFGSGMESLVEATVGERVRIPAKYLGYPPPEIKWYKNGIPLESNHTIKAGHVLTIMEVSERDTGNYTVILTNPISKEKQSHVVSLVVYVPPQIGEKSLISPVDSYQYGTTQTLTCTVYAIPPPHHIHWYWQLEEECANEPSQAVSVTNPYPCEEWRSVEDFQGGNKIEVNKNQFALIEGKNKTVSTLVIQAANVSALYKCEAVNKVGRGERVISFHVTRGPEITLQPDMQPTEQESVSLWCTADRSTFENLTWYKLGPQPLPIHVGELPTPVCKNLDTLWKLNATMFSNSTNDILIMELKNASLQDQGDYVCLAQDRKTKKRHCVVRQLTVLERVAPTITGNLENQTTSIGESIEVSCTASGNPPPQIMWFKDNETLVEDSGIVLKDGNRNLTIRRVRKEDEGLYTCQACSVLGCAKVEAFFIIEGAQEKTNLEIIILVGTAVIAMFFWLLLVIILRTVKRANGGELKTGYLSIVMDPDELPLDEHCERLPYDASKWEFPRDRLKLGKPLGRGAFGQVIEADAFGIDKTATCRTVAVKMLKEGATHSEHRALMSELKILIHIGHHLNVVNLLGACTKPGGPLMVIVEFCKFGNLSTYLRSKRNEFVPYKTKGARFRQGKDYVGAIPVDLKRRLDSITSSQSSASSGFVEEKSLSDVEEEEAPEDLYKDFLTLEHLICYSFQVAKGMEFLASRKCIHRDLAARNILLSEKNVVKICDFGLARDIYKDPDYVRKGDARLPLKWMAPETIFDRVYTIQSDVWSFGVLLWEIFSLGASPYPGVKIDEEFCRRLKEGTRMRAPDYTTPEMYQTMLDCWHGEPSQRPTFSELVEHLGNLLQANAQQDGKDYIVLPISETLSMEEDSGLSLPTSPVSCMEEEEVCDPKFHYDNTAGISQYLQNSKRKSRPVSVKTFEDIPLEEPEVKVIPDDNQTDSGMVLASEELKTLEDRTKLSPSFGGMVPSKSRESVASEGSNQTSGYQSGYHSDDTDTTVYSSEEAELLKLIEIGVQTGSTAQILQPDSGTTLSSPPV
T6 sequence (Q13153 whole entry): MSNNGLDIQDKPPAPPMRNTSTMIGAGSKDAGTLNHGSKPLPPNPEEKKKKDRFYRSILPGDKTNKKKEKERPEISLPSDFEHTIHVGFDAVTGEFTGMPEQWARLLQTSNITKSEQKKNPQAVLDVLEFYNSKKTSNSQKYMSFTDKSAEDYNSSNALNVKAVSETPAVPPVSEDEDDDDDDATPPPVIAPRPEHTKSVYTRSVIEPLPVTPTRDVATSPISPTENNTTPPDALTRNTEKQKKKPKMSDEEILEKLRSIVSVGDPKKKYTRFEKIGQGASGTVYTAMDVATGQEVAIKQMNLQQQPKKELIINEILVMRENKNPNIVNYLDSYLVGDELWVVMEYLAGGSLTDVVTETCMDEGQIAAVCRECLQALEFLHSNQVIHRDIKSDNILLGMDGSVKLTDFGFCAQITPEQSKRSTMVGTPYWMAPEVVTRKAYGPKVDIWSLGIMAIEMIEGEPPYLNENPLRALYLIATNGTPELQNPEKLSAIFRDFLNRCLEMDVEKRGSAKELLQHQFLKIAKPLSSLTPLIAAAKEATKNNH
T8 sequence (O60674 849-1124 limits assumed): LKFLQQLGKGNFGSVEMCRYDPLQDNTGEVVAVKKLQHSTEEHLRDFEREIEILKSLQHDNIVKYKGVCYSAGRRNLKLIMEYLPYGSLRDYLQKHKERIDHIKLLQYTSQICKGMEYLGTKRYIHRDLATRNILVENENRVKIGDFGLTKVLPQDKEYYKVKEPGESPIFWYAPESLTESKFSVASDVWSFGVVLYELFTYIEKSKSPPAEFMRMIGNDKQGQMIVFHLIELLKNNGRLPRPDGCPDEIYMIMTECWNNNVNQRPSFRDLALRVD
T9 sequence (P48730 whole entry): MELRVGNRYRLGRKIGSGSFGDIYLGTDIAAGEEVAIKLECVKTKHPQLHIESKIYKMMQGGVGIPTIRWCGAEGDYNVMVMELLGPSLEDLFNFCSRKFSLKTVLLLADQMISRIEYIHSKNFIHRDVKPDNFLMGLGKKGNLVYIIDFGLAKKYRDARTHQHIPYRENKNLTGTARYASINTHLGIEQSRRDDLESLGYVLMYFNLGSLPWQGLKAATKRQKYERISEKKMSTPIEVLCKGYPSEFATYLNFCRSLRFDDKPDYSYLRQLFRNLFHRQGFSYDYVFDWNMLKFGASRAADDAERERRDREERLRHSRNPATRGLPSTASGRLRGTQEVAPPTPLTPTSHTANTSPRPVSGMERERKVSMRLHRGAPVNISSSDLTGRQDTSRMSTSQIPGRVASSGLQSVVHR
T3 sequence (P50750 whole entry): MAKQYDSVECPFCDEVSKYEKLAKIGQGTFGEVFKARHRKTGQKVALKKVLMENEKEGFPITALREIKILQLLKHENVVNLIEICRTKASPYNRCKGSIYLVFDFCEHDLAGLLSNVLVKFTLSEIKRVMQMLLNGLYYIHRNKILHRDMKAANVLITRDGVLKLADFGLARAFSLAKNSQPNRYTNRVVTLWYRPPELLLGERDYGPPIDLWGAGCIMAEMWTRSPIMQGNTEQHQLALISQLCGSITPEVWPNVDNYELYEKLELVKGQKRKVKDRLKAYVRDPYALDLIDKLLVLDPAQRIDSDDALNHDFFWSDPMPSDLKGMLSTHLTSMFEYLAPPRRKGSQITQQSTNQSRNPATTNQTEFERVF
T2 sequence (P00519 whole entry): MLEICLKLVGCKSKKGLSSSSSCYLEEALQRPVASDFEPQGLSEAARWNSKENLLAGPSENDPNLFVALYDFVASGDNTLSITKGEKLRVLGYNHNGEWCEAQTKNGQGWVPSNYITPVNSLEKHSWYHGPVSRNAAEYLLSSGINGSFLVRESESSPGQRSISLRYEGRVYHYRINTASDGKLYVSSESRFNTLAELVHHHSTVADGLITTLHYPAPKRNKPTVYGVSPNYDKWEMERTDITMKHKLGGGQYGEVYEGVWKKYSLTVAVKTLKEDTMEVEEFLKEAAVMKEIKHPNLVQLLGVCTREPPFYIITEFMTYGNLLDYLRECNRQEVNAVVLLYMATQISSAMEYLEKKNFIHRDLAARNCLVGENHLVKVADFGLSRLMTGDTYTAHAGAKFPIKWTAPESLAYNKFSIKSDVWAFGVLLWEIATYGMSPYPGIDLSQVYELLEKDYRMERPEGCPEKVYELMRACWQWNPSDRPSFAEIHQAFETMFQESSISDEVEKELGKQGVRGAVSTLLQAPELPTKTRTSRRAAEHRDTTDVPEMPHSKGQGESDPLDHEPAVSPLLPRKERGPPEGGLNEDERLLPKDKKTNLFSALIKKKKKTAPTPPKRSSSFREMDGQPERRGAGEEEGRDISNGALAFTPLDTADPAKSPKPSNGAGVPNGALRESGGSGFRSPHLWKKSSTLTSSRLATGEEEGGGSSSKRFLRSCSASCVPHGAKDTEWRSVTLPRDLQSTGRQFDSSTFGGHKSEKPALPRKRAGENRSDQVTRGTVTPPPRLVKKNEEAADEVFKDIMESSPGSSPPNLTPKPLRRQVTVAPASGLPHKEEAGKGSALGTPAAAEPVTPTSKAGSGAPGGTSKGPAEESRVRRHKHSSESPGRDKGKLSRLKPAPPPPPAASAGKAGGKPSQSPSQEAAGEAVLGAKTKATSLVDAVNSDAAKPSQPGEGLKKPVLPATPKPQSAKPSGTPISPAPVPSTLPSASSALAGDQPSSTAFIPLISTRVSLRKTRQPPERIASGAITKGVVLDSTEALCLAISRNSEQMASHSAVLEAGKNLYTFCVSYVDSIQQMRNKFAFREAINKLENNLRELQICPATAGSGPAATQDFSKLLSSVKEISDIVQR

SMILES | RA @ 1000nM [1] [%] | RA @ 10000nM [1] [%] | RA @ 1000nM [2] [%] | RA @ 10000nM [2] [%] | RA @ 1000nM [3] [%] | RA @ 10000nM [3] [%] | RA @ 1000nM [4] [%] | RA @ 10000nM [4] [%] | RA @ 1000nM [5] [%] | RA @ 10000nM [5] [%] | RA @ 1000nM [6] [%] | RA @ 10000nM [6] [%] | RA @ 1000nM [7] [%] | RA @ 10000nM [7] [%] | RA @ 1000nM [8] [%] | RA @ 10000nM [8] [%] | RA @ 1000nM [9] [%] | RA @ 10000nM [9] [%]
CN(C)CCNC(=O)c1cc2c(cnn2CC2CCCCC2)cc1Cc1ccc(F)cc1F [Compound 95, 1-(Cyclohexylmethyl)-5-(2,4-difluorobenzyl)-N-(2-(dimethylamino)ethyl)-1H-indazole-6-carboxamide] | 100 | 100 | 90 | 90 | 100 | 93 | 100 | 99 | 100 | 100 | 100 | 93 | 100 | 100 | 100 | 100 | 93 | 84
CC(C)Cn1ncc2cc(Cc3ccc(F)cc3F)c(C(=O)NCCN(C)C)cc21 [Compound 94, 5-(2,4-Difluorobenzyl)-N-(2-(dimethylamino)ethyl)-1-isobutyl-1H-indazole-6-carboxamide] | 100 | 100 | 85 | 97 | 100 | 100 | 93 | 94 | 100 | 100 | 96 | 94 | 97 | 100 | 98 | 100 | 86 | 79
